The values below come from paper PMC9740829, “Salvianolic Acid B Strikes Back: New Evidence in the Modulation of Expression and Activity of Matrix Metalloproteinase 9 in MDA-MB-231 Human Breast Cancer Cells” (Molecules, 2022).

In the experiment the target is T1, matrix metalloproteinase 9 (MMP-9) (Homo sapiens, UniProt P14780).
T1 construct: gene MMP9; recombinant catalytic domain of MMP-9 (CDMMP-9), 39 kDa, aa 107–457 + NT His Tag
Put plainly: fluorometric inhibition assay with self-quenched peptide substrate; double reciprocal and secondary plots. Type of experiment: biochemical. The source says: fluorometric inhibition assay with self-quenched peptide substrate; double reciprocal and secondary plots on matrix metalloproteinase 9 (MMP-9) | competitive inhibition of the activity performed by the MMP-9 catalytic domain (CDMMP-9) (Figure 3A), and allowed to define a Ki

T1 sequence (P14780 107-457): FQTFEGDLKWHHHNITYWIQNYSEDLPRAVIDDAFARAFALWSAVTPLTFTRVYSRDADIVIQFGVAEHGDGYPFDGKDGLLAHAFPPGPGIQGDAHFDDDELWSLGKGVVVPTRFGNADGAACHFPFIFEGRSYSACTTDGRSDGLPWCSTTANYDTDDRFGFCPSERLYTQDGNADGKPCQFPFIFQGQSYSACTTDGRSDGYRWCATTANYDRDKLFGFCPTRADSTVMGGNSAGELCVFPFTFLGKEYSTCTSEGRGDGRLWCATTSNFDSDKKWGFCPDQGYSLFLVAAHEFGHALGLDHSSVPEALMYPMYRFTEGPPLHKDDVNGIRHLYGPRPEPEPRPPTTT

For the compound `O=C(/C=C/c1ccc(O)c2c1[C@H](C(=O)O[C@H](Cc1ccc(O)c(O)c1)C(=O)O)[C@@H](c1ccc(O)c(O)c1)O2)O[C@H](Cc1ccc(O)c(O)c1)C(=O)O` [SalB, Salvianolic acid B], the Ki was 57.4 ± 3.96 µM.

As a reminder, the Ki is the dissociation constant of the complex between target and ligand, obtained from inhibition or displacement. A higher Ki goes with lower affinity.
